Here are results for three molecules from patent publication US20260167608A1, “CRYSTALLINE FORMS OF 4-(7-HYDROXY-2-ISOPROPYL-4-OXO-4H-QUINAZOLIN-3-YL)-BENZONITRILE AND FORMULATIONS THEREOF” (Bausch + Lomb Ireland Limited, priority 2019, published 2026).

As usually defined, the solubility is the concentration that dissolves in the medium under given conditions.

Each structure is given as a SMILES string. In brackets after ≈: the same amount, converted by molar mass.

The nature of data set [1]: Conversion of crystal form C in 1:1 mixtures with other crystal forms in solvent. The format is physicochemical.
Data set [2] is described as follows: Equilibration with solvent at 25° C., solid investigated by XRPD. The data set is classed as physicochemical. The arrangement: key to XRPD change after equilibration: “−”: no change detected; “+”: change detected; “//”: not carried out because substance too soluble in the solvent. The method, then:
Equilibration with Solvent at 25° C.
For equilibration at 25° C., about 50 mg of compound I was equilibrated with 1 ml solvent for 24 h in a water bath at 25° C.±0.1. The solutions were filtered and dried for 10 minutes in the air. The solid part was investigated by XRPD (X-ray powder diffraction). If differences were observed additional investigations were performed as appropriate (e.g. DSC, TG, IR, SEM).
The X-ray powder diffraction (XRPD) patterns described herein were recorded on a Bruker D8 Advance diffractometer using CuKα radiation. The XRPD pattern was recorded between 2° and 40° (2-theta).

Data set [3] in a line: Hygroscopicity (water uptake) of crystal form E. The format is physicochemical. As for the experimental part: The maximum water uptake is less than 0.1% at 25° C. up to 92% relative humidity.
The nature of data set [4]: Solubility of crystal form E at 25° C., analysis by HPLC. As to conditions: thermodynamic from solid. The data set is classed as physicochemical. The method, then:
Solubility of crystal form E was measured at 25° C.

A short description of data set [5]: Intrinsic dissolution rate at 37° C. The format is physicochemical.
Data set [6] can be described thus: Exploratory formulation stability at room temperature and 40° C. (UPLC assay). The data set is classed as physicochemical. As to conditions: part of compound I in solution in the supernatant; after 12 weeks at 40° C. The method, then:
Based on the limited solubility of compound I in various solvents and in water, a suspension formulation was explored for development. The following five formulations were prepared and tested for stability. Formulations were stored in crimp-sealed glass vials at room temperature and at 40° C. At 6, 8 and 12 weeks, samples were evaluated for compound I stability.
The formulations prepared in Table 13 were assayed using an exploratory UPLC method developed for the assay of compound I as shown in Table 14.
Results from the testing for compound I stability at room temperature and 40° C. are shown in FIG. 14A and FIG. 14B, respectively. […] In contrast, the part of compound I in solution in the supernatant degrades to about 20% of initial amount after 12 weeks at 40° C.

Data set [7] in a line: Pharmacokinetic study of exploratory formulations, single bilateral topical ocular dosing. The note with it: male NZW rabbits. The data set is classed as in vivo, rabbit. The method, then:
A pharmacokinetics study was conducted to determine the ocular uptake of compound I following single bilateral topical ocular dosing of male NZW rabbits with the same four exploratory formulations provided in Table 13: FID 12152, FID 121511, FID 121512, FID 121513.

Where [8] appears, read: equilibration at 25° C., solvent t-butylmethylether.

Take `CC(C)c1nc2cc(O)ccc2c(=O)n1-c1ccc(C#N)cc1` [Crystal form C, 4-(7-Hydroxy-2-isopropyl-4-oxo-4H-quinazolin-3-yl)-benzonitrile]: the “conversion of crystal form” value in data set [1] (1:1 mixture with crystal form A, in methanol) is listed as “converted in methanol to Solvate SB (crystal form G)”; in data set [1] (1:1 mixture with crystal form B, in isopropanol), “converted in isopropanol to crystal form B”.
Take `CC(C)c1nc2cc(O)ccc2c(=O)n1-c1ccc(C#N)cc1` [Crystal form E, 4-(7-Hydroxy-2-isopropyl-4-oxo-4H-quinazolin-3-yl)-benzonitrile]: the Comments entry in data set [2] (equilibration at 25° C., solvent Acetone) was “too soluble”; in data set [2] (setting [8]), “amorphous”; in data set [2] (form E mixed with form B, equilibration at 25 degree C., solvent Ethanol abs.), “converts into crystal form B”. The “XRPD change after equilibration” value is listed as “−” in data set [2] (equilibration at 25° C., solvent Cyclohexane); “−” in data set [2] (equilibration at 25° C., solvent Ethanol abs.); “−” in data set [2] (equilibration at 25° C., solvent Ethyl acetate); “−” in data set [2] (equilibration at 25° C., solvent Water); “+” in data set [2] (setting [8]). For the same molecule, the hygroscopicity entry in data set [3] was “non-hygroscopic”. Moreover, the maximum water uptake entry in data set [3] (at 25° C. up to 92% relative humidity) is “less than 0.1%”. Moreover, the solubility in data set [4] (acetate buffer pH 4.5, 25 °C, aqueous buffer, Buffer pH 4.5 (acetate)) is 10 µg/mL (≈ 32.8 µM); in data set [4] (buffer pH 1 (0.1 N HCl), 25 °C, pH 1, simulated gastric fluid), 345 µg/mL (≈ 1130 µM); in data set [4] (phosphate buffer pH 6.88, 25 °C, aqueous buffer, Buffer pH 6.88 (phosphate)), 11 µg/mL (≈ 36 µM). Further, the figures for the “Intrinsic dissolution rate (IDR) at 37° C.” value in data set [5] (HCl 0.1 N) and in data set [5] (pH 3) were 0.0194 mg min^−1 cm^−2 and 0.0025 mg min^−1 cm^−2, respectively.
Take `CC(C)c1nc2cc(O)ccc2c(=O)n1-c1ccc(C#N)cc1` [compound I, 4-(7-hydroxy-2-isopropyl-4-oxo-4H-quinazolin-3-yl)-benzonitrile]: the “compound I remaining, of initial amount” value in data set [6] was “about 20%”. For the same molecule, in data set [7], the “exposure in the cornea, times the levels in plasma” value is “approximately 500 times”; the “exposure in the cornea, times the levels in the aqueous humor and iris-ciliary body” value is “approximately 10 times”.
